From paper PMC7000700, “RyR1-targeted drug discovery pipeline integrating FRET-based high-throughput screening and human myofiber dynamic Ca^2+ assays” (Scientific Reports, 2020)

Biological target: RyR1 (Sus scrofa, UniProt P16960)
Test: [3H]ryanodine binding to skeletal SR vesicles
Type: biochemical, porcine
Set-up: RyR1 in skeletal SR membranes, and RyR2 in cardiac SR membranes; from tissue; host or cells: porcine longissimus dorsi muscle (heavy SR vesicles)
Experimental: To evaluate the functional impact of compounds identified through our FRET-based screen, we first used [^3H]ryanodine binding assays. The level of [^3H]ryanodine binding to RyRs in SR membranes is a well-established index of the RyR channel activity. Given the role of CaM binding in our FRET readout, we investigated whether CaM influences the functional effect of the Hit compounds by carrying out [^3H]ryanodine binding assays in the absence and presence of CaM (300 nM).
Crude sarcoplasmic reticulum (CSR) vesicles were isolated from porcine longissimus dorsi muscle and porcine cardiac left ventricle tissue by differential centrifugation of homogenized tissue. HSR vesicles, which are enriched in RyR1, were isolated by fractionation of crude skeletal SR vesicles using a discontinuous sucrose gradient. All vesicles were flash-frozen and stored at −80 °C. Immediately prior to the fluorescence or [^3H]ryanodine binding studies described below, the SR vesicles were stripped of residual endogenous CaM by incubation with a peptide derived from the CaM binding domain of myosin light chain kinase, followed by sedimentation.
In 96-well plates, HSR vesicles (1 mg/ml) and cardiac CSR vesicles (3 mg/mL) were pre-incubated with 0.02% DMSO or Hit compound, with or without 300 nM CaM, for 30 min at 22 °C in a solution containing 150 mM KCl, 5 mM GSSG, 1 µg/mL Aprotinin/Leupeptin, 1 mM EGTA, and 65 µM or 1.02 mM CaCl2 (as determined by MaxChelator to yield 30 nM or 30 μM of free Ca^2+, respectively), 0.1 mg/mL BSA and 20 mM K-PIPES (pH 7.0). Non-specific and maximal [^3H]ryanodine binding to SR were separately assessed by addition of 40 µM non-radioactively labeled ryanodine or 5 mM Adenylyl-imidodiphosphate, respectively. Such control samples were each distributed over 4 wells/plate. Binding of [^3H]ryanodine (10 and 15 nM for cardiac and skeletal SR, respectively) was determined after a 3-h incubation (37 °C) and filtration through grade GF/B Glass Microfiber filters (Brandel Inc., Gaithersburg, MD, US) using a Brandel Harvester. In 4 mL of Ecolite Scintillation cocktail (MP biomedicals, Solon, OH, USA), [^3H] on filter was counted using a Beckman LS6000 scintillation counter (Fullerton, CA).

Sequence of RyR1 (P16960 whole entry): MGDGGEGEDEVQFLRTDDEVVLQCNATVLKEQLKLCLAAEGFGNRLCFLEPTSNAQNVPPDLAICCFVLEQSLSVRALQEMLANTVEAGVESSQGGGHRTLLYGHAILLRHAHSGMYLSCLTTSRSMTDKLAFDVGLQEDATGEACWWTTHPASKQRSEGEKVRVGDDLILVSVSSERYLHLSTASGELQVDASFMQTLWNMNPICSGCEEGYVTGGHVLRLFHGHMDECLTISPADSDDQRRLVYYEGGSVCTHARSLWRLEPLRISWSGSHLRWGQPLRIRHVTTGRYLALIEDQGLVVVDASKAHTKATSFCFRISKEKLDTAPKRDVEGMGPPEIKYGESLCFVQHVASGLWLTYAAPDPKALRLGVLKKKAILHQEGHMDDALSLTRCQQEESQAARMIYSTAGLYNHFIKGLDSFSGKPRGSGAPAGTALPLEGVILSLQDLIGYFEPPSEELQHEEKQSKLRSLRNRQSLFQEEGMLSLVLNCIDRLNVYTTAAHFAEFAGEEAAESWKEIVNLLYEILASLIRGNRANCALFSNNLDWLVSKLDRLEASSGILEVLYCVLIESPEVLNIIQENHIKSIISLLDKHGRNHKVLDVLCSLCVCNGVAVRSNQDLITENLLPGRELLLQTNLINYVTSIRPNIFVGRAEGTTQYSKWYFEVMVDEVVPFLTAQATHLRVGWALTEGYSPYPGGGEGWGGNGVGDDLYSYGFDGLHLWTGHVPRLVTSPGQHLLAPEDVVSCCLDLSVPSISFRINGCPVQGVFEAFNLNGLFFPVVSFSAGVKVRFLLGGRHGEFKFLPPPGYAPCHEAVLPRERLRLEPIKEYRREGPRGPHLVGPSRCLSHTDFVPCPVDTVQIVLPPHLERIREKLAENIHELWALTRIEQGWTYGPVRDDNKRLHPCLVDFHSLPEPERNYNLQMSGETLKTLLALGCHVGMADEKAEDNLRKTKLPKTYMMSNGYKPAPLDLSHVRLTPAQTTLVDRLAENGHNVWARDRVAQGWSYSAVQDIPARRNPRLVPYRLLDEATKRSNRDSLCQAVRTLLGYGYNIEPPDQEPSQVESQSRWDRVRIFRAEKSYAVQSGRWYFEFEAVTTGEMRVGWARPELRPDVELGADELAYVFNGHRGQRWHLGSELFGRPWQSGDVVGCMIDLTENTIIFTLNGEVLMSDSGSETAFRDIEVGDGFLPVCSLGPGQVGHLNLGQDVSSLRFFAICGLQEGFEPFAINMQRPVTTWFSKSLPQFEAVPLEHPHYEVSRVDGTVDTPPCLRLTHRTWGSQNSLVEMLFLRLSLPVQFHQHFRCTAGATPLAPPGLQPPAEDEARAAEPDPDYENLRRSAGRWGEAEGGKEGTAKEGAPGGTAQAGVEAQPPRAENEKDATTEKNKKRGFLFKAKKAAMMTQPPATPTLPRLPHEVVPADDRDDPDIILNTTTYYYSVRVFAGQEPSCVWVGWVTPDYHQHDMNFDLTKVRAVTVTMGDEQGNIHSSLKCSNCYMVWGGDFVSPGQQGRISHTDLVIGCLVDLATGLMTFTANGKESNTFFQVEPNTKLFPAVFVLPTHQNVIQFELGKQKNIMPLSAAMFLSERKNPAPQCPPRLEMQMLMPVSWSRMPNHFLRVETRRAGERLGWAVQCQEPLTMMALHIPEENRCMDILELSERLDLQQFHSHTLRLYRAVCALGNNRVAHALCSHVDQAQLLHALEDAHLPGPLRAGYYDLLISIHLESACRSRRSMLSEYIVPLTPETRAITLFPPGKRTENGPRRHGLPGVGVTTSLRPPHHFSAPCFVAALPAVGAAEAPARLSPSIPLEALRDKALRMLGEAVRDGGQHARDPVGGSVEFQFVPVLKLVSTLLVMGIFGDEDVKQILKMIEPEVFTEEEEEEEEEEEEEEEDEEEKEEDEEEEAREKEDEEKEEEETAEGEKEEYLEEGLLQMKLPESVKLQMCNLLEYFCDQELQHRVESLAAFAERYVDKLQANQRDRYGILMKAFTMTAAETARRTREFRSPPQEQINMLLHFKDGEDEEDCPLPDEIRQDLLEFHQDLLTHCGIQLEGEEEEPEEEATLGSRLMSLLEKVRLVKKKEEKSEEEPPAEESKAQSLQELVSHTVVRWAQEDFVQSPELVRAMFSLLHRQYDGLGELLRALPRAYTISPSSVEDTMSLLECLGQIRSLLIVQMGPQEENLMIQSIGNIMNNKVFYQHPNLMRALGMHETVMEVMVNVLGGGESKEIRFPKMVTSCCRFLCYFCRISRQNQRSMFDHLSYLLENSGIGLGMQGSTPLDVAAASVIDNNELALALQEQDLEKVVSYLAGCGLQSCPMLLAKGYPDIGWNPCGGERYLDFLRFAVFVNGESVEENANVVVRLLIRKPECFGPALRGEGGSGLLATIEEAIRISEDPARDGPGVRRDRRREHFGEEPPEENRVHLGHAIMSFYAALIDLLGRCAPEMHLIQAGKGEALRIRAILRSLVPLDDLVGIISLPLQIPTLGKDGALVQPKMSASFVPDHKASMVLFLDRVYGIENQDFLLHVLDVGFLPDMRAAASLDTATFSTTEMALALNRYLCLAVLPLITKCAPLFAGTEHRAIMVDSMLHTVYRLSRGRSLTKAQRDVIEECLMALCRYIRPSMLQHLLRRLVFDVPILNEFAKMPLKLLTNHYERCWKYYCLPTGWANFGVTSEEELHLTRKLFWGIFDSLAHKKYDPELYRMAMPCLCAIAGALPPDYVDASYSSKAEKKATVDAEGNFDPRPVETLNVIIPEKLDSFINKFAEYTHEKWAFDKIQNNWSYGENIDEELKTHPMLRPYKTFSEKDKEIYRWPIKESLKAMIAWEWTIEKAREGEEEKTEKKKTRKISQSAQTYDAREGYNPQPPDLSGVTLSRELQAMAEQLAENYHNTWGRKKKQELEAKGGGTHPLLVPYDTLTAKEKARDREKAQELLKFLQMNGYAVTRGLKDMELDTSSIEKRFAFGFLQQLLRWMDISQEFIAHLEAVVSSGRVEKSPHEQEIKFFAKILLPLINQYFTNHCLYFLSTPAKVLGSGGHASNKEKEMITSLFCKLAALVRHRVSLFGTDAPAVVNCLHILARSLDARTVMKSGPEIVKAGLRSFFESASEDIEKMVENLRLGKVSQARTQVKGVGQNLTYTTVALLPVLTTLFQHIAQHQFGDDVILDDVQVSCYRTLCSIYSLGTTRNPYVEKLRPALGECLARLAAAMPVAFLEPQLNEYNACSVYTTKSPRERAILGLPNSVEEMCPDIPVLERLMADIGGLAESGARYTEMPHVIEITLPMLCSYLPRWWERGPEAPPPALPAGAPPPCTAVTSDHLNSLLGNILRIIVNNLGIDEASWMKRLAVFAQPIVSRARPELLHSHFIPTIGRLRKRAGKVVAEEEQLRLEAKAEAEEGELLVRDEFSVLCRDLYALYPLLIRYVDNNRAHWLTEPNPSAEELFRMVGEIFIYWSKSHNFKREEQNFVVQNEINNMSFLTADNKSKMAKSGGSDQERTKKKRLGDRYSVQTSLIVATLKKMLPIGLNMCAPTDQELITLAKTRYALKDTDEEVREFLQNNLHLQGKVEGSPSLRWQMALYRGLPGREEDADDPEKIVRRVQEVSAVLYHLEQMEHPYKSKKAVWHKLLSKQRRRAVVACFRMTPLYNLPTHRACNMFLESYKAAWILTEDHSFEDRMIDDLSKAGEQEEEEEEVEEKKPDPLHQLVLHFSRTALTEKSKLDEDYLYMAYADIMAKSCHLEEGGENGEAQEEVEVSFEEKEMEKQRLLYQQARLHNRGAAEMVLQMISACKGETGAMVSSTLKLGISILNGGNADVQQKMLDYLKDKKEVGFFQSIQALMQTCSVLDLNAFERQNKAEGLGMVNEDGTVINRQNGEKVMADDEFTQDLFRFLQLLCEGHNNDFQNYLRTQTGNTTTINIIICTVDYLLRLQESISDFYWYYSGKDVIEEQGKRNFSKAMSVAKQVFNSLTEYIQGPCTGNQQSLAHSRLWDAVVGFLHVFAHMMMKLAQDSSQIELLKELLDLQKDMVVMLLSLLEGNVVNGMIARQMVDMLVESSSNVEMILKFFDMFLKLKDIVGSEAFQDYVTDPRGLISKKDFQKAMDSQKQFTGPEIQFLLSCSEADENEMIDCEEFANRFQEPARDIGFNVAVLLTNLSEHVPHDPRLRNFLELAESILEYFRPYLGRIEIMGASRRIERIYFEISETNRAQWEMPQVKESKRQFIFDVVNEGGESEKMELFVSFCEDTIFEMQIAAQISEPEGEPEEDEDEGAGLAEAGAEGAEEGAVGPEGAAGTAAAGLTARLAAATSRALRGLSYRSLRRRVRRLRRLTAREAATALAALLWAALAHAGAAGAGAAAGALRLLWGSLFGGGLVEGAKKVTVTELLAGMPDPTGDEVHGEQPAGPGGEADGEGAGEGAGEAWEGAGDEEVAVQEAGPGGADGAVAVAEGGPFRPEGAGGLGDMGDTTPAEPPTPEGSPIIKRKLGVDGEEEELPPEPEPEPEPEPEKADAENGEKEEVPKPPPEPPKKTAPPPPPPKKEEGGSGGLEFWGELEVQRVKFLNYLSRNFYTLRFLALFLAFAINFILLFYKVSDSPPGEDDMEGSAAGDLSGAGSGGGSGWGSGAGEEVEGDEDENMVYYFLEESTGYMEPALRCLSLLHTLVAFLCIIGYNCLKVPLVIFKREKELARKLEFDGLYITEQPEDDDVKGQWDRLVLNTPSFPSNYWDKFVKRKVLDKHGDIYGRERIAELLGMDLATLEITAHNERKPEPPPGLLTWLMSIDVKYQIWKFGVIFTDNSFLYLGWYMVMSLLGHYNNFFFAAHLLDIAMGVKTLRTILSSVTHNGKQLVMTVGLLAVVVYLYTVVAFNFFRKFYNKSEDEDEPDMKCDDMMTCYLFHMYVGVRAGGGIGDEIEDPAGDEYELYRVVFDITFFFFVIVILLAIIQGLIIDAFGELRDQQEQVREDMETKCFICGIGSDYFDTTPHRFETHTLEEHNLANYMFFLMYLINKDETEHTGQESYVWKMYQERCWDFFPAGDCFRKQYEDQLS

Maximum decrease in [3H]ryanodine binding (1 μM compound, 30 μM Ca2+): ~ 20% | Effect on [3H]ryanodine binding (20 μM compound, 30 nM Ca2+, only in the absence of CaM): dramatically increased | Effect on [3H]ryanodine binding (30 μM Ca2+, presence and absence of 0.3 μM CaM, 0-20 μM compound): biphasic effect | Decrease in [3H]ryanodine binding (≤ 10 μM compound, 30 nM Ca2+, with or without CaM): > 50%
SMILES: O=c1c(O)c(-c2cc(O)c(O)c(O)c2)oc2cc(O)cc(O)c12 [myricetin]
